In US9597342B2 (UWM Research Foundation, Inc., priority 2011, dated 2017):
Marks after values point to notes of the source that are not given here.

What was measured:
[1] = Incubation with heat-inactivated human liver microsomes (stability control); conditions: 60 min
Experimental: (§1) The test articles were incubated at two concentrations (1 and 10 μM) in 96-well plate format with active or heat-inactivated human liver microsomes and cofactors. Aliquots were removed at 0, 15, 30 and 60 minutes and mixed with acetonitrile containing internal standard for analysis. Samples were extracted and assayed using a liquid chromatography/tandem mass spectrometry (LC-MS/MS) analytical method.
(§2) The test articles (1 and 10 μM) were incubated with human liver microsomes (0.5 mg protein/ml) and appropriate cofactors (2.5 mM NADPH and 3.3 mM magnesium chloride) in 100 mM phosphate buffer, pH 7.4 (0.1% final DMSO), in a 37° C. water bath. Incubations with all compounds were initiated with the addition of microsomes. At selected time points (0, 15, 30 and 60 min), a single 100 μl aliquot was removed from each sample and mixed with 200 μl of chilled acetonitrile containing internal standard. Following brief vortexing and centrifugation, the samples were further diluted into a 96-well plate for subsequent LC-MS/MS analysis. All samples were assayed in duplicate.
(§3) Experimental controls consisted of: a) incubation of all components except test article for 0 and 60 min, b) incubation of midazolam (positive control) at 10 μM for 0, 15, 30 and 60 min, and c) incubation of 1 and 10 μM test article and 10 μM midazolam with heat-inactivated microsomes (0.5 mg protein/ml) for 0 and 60 min. All controls were assayed in duplicate.
(§4) Data from the metabolic stability assays were transferred to and processed in a Microsoft Excel spreadsheet. To determine metabolic stability, the percent remaining at each time point was calculated by dividing the peak area ratio of test article/internal standard at each time point by the peak area ratio at 0 min multiplied by 100.

[2] = In vitro metabolic stability using human liver microsomes; conditions: for % remaining: at both 1 and 10 μM
Experimental: The metabolic stability of 15 GABAA receptor ligands using human liver microsomes was studied. The test articles were incubated at two concentrations (1 and 10 μM) and aliquots (100 μl) were removed at various time points (0, 15, 30 and 60 minutes), and analyzed by LC-MS/MS.
as §1
Pooled human liver microsomes (Lot #38289, pool of 150 different male and female donor livers) were obtained from BD Biosciences Corporation (Woburn, Mass.). Microsomes were stored at ˜−135° C. until use.
as §2, §3
Samples were analyzed by LC-MS/MS in multiple reaction monitoring mode using positive-ion electrospray ionization. The details of the LC-MS/MS method can be provided upon request.
as §4

SMILES | melting point | Mean % Remaining vs T = 0 min, with HI (Heat Inactivated) Microsomes ([1]; 1 μM) [%] | Mean % Remaining vs T = 0 min, with HI (Heat Inactivated) Microsomes ([1]; 10 μM) [%] | Mean % Remaining vs T = 0 min, Human Liver Microsomes ([2]; 1 μM, 15 min) [%] | Mean % Remaining vs T = 0 min, Human Liver Microsomes ([2]; 1 μM, 30 min) [%] | Mean % Remaining vs T = 0 min, Human Liver Microsomes ([2]; 1 μM, 60 min) | Mean % Remaining vs T = 0 min, Human Liver Microsomes ([2]; 10 μM, 15 min) [%] | Mean % Remaining vs T = 0 min, Human Liver Microsomes ([2]; 10 μM, 30 min) [%] | Mean % Remaining vs T = 0 min, Human Liver Microsomes ([2]; 10 μM, 60 min) [%] | also measured
C#Cc1ccc2c(c1)C(c1ccccc1F)=N[C@@H](C)c1c(C(=O)OCCCCCOC(=O)c3ncn4c3[C@H](C)N=C(c3ccccc3F)c3cc(C#C)ccc3-4)ncn1-2 | 150 to 155 °C |  |  |  |  |  |  |  |  | 
C#Cc1ccc2c(c1)C(c1ccccn1)=NCc1c(C(=O)OCC)ncn1-2 [HZ-166] |  | 94.1 | 95.4 | 106 | 98.4 | 80.4% | 104 | 90.7 | 76.3 | 
C#Cc1ccc2c(c1)C(c1ccccc1F)=N[C@@H](C)c1c(C(=O)N3CCN(C(=O)c4ncn5c4[C@H](C)N=C(c4ccccc4F)c4cc(C#C)ccc4-5)CC3)ncn1-2 | 180 to 190 °C |  |  |  |  |  |  |  |  | 
CN1Cc2c(C(=O)N3CCN(C(=O)c4ncn5c4CN(C)C(=O)c4cc(Cl)ccc4-5)CC3)ncn2-c2ccc(Cl)cc2C1=O | 367 to 374 °C |  |  |  |  |  |  |  |  | 
C#Cc1ccc2c(c1)C(=O)N1CCCC1c1c(C(=O)OCCCOC(=O)c3ncn4c3CN(C)C(=O)c3cc(Cl)ccc3-4)ncn1-2 (centres unmarked) | 174 to 176 °C |  |  |  |  |  |  |  |  | 
C#Cc1ccc2c(c1)C(c1ccccc1F)=NCc1c(C(=O)OCC)ncn1-2 [JY-XHe-053] |  | 102 | 111 | 13.5 | 2.13 | 0.27% | 20.0 | 3.60 | 0.56 | % remaining ([2]; 15 min): less than 20%
C#Cc1ccc2c(c1)C(c1ccccc1)=NCc1c(C(=O)OCCCCCOC(=O)c3ncn4c3CN(C)C(=O)c3cc(Cl)ccc3-4)ncn1-2 | 155 to 160 °C (dec.) |  |  |  |  |  |  |  |  | 
C#Cc1ccc2c(c1)C(c1ccccc1)=NCc1c(C(=O)O)ncn1-2 [XHe-II-053 Acid] |  | 106 | 97.4 | 108 | 106 | 111% | 95.6 | 95.0 | 95.0 | 
C#Cc1ccc2c(c1)C(c1ccccc1F)=N[C@@H](C)c1c(C(=O)OCCCCOC(=O)c3ncn4c3[C@H](C)N=C(c3ccccc3F)c3cc(C#C)ccc3-4)ncn1-2 | 158 to 160 °C |  |  |  |  |  |  |  |  | 
CN1Cc2c(C(=O)OCCCCCOC(=O)c3ncn4c3CN(C)C(=O)c3cc(Cl)ccc3-4)ncn2-c2ccc(Cl)cc2C1=O | 146 to 152 °C |  |  |  |  |  |  |  |  | 
C#Cc1ccc2c(c1)C(c1ccccc1)=NCc1c(C(=O)OCCCCCOC(=O)c3ncn4c3CN=C(c3ccccc3F)c3cc(C#C)ccc3-4)ncn1-2 | 145 to 150 °C |  |  |  |  |  |  |  |  | 
O=C(OCCCCOC(=O)c1ncn2c1[C@@H]1CCCN1C(=O)c1cc(Br)ccc1-2)c1ncn2c1C1CCCN1C(=O)c1cc(Br)ccc1-2 (some centres unmarked) | 166 to 171 °C |  |  |  |  |  |  |  |  | 
C#Cc1ccc2c(c1)C(c1ccccc1F)=N[C@H](C)c1c(C(=O)OCC)ncn1-2 [SH-053-2′F-RCH3] |  | 115 | 117 | 86.7 | 86.7 | 86.9% | 97.9 | 105 | 105 | 
C#Cc1ccc2c(c1)C(c1ccccc1F)=NCc1c(C(=O)OCCCCCOC(=O)c3ncn4c3CN(C)C(=O)c3cc(Cl)ccc3-4)ncn1-2 | 125 to 130 °C |  |  |  |  |  |  |  |  | 
O=C(OCCCCCOC(=O)c1ncn2c1[C@@H]1CCCN1C(=O)c1cc(Br)ccc1-2)c1ncn2c1C1CCCN1C(=O)c1cc(Br)ccc1-2 (some centres unmarked) | 157 to 161 °C |  |  |  |  |  |  |  |  | 
C#Cc1ccc2c(c1)C(c1ccccc1)=NCc1c(C(=O)NC)ncn1-2 | 237 to 238 °C |  |  |  |  |  |  |  |  | 
C#Cc1ccc2c(c1)C(c1ccccc1F)=N[C@@H](C)c1c(C(=O)OCCCCCOC(=O)c3ncn4c3CN(C)C(=O)c3cc(Cl)ccc3-4)ncn1-2 | 157 to 162 °C (dec.) |  |  |  |  |  |  |  |  | 
C#Cc1ccc2c(c1)C(=O)N1CCCC1c1c(C(=O)N3CCN(C(=O)c4ncn5c4[C@@H]4CCCN4C(=O)c4cc(C#C)ccc4-5)CC3)ncn1-2 (some centres unmarked) | 206 to 211 °C |  |  |  |  |  |  |  |  | 
C#Cc1ccc2c(c1)C(c1ccccn1)=NCc1c(C(=O)SC)ncn1-2 [ZJW-II-065, S-Methyl-8-Ethynyl-Methyl-6-(Pyridine-2-yl)-4H-Benzo-[f]-Imidazo-[1,5-a]-[1,4]-Diazepine-3-Carbothioate] |  | 105 | 110 | 98.4 | 97.0 | 82.5% | 111 | 106 | 95.6 | 
C#Cc1ccc2c(c1)C(c1ccccc1F)=N[C@@H](C)c1c(C(=O)OCC)ncn1-2 [SH-053-2′F-SCH3] |  | 110 | 114 | 6.18 | 0.85 | 3.85^d % | 11.7 | 1.72 | 0.20 | % remaining ([2]; 15 min): less than 12%
C#Cc1ccc2c(c1)C(c1ccccn1)=NCc1c(-c3nc(C(C)C)no3)ncn1-2 [ZJW-II-040, 5-(8-Ethynyl-6-(pyridin-2-yl)-4H-Benzo-[f]-Imidazo-[1,5-a]-[1,4]-Diazepine-3-yl)-3-Isopropyl-1,2,4-Oxadiazole] |  | 113 | 92.0 | 97.8 | 98.7 | 89.4% | 106 | 99.3 | 95.1 | 
Cc1ncc2n1-c1ccc(Cl)cc1C(c1ccccc1F)=NC2 [Midazolam] |  |  |  |  |  |  |  |  |  | Mean % Remaining vs T = 0 min, with HI (Heat Inactivated) Microsomes ([1]; 10 μM, positive control, data from three experiments): 104 ± 1.2%; Mean % Remaining vs T = 0 min, Human Liver Microsomes ([2]; 10 μM, 15 min, positive control, data from three experiments): 36.9 ± 13.5%; Mean % Remaining vs T = 0 min, Human Liver Microsomes ([2]; 10 μM, 30 min, positive control, data from three experiments): 18.7 ± 7.3%; Mean % Remaining vs T = 0 min, Human Liver Microsomes ([2]; 10 μM, 60 min, positive control, data from three experiments): 4.2 ± 2.2%; metabolism observed (in words) ([2]; active human liver microsomes, up to 60 min): consistently metabolized
CN1Cc2c(C(=O)OCCCCOC(=O)c3ncn4c3CN(C)C(=O)c3cc(Cl)ccc3-4)ncn2-c2ccc(Cl)cc2C1=O | 308 to 312 °C |  |  |  |  |  |  |  |  | 
C#Cc1ccc2c(c1)C(c1ccccc1)=NCc1c(C(=O)OCC)ncn1-2 [XHe-II-053] |  | 107 | 102 | 41.4 | 11.1 | 1.46% | 47.6 | 13.9 | 1.74 | 
